Data on 11 compounds can be found in patent US20260078133.

For this data set the following is noted: ester bond, 18-membered ring, DCM.

Read-outs that look alike come from different tables or passages of the source.

For the setting “from CCn1c(-c2cc(N3CCN(C(=O)OCc4ccccc4)CC3)cnc2[C@H](C)OC)c(CC(C)(C)CO)c2cc(-c3csc(C[C@H](NC(=O)OC(C)(C)C)C(=O)N4N[C@@H](C(=O)O)C5CC4C5)n3)ccc21, EDCI/HOBT/DIEA, 5.2 mM, 35.0 °C, 16.0 h”, `CCn1c(-c2cc(N3CCN(C(=O)OCc4ccccc4)CC3)cnc2[C@H](C)OC)c2c3cc(ccc31)-c1csc(n1)C[C@H](NC(=O)OC(C)(C)C)C(=O)N1N[C@@H](C(=O)OCC(C)(C)C2)C2CC1C2` returned a ring closure, isolated yield of 49%.

On to “tert-butyl ((1^2S,12S)-2^1-ethyl-2^2-(2-((S)-1-methoxyethyl)pyridin-3-yl)-4,4,10-trimethyl-7,11-dioxo-2^1H-6-oxa-9,10-diaza-1(4,2)-morpholina-2(5,3)-indolacyclotridecaphane-12-yl)carbamate”, for which the ring closure, isolated yield (EDCI/HOBT/DIEA, 6.5 mM) came out at 44%.

Turning to `CCn1c(-c2cc(N3CCN(C4CC4)CC3)cnc2[C@H](C)OC)c2c3cc(ccc31)-c1nnc(o1)C[C@H](NC(=O)OCc1ccccc1)C(=O)N1N[C@H](C(=O)OCC(C)(C)C2)C2CC1C2`, for the setting “from CCn1c(-c2cc(N3CCN(C4CC4)CC3)cnc2[C@H](C)OC)c(CC(C)(C)CO)c2cc(-c3nnc(C[C@H](NC(=O)OCc4ccccc4)C(=O)N4N[C@H](C(=O)O)C5CC4C5)o3)ccc21, PyBOP/DMAP, 6.6 mM, 16.0 h, 2 steps”, the ring closure, isolated yield came to 29%.

Where the note is “from CCn1c(-c2cc(N3CCN(C)CC3)cnc2[C@H](C)OC)c(CC(C)(C)CO)c2cc(-c3csc(C[C@H](NC(=O)OC(C)(C)C)C(=O)N(C)NCC(=O)O)n3)ccc21, PyBOP/DMAP, 0.8 mM, 0.0 °C, 1.0 h”, `CCn1c(-c2cc(N3CCN(C)CC3)cnc2[C@H](C)OC)c2c3cc(ccc31)-c1csc(n1)C[C@H](NC(=O)OC(C)(C)C)C(=O)N(C)NCC(=O)OCC(C)(C)C2` came in with a ring closure, isolated yield of 42%.

The compound `CCn1c(-c2cccnc2[C@H](C)OC)c2c3cc(ccc31)N1CCO[C@@H](C[C@H](NC(=O)OC(C)(C)C)C(=O)N3N[C@H](C(=O)OCC(C)(C)C2)C2CC3C2)C1` yielded a ring closure, isolated yield (from CCn1c(-c2cccnc2[C@H](C)OC)c(CC(C)(C)CO)c2cc(N3CCO[C@@H](C[C@H](NC(=O)OC(C)(C)C)C(=O)N4N[C@H](C(=O)O)C5CC4C5)C3)ccc21, PyBOP/DMAP, 2.6 mM, 16.0 h) of 96.2%.

“benzyl-4-(5-((64S,4S)-4-((tert-butoxycarbonyl) amino)-11-ethyl-10,10-dimethyl-5,7-dioxo-11H-8-oxa-62,63-diaza-1 (5,3)-indola-6(2,4)-bicyclo[3.1.1]heptana-2(1,3)-benzenacycloundecaphane-12-yl)-6-((S)-1-methoxyethyl)pyridin-3-yl)piperazine-1-carboxylate” registered a ring closure, isolated yield (EDCI/HOBT/DIEA, 6.0 mM) of 27%.

As for `CCn1c(-c2cc(N3CCN(C(=O)OCc4ccccc4)CC3)cnc2[C@H](C)OC)c2c3cc(ccc31)N1CCO[C@@H](C[C@H](NC(=O)OC(C)(C)C)C(=O)N3N[C@H](C(=O)OCC(C)(C)C2)C2CC3C2)C1`, where the note is “from CCn1c(-c2cc(N3CCN(C(=O)OCc4ccccc4)CC3)cnc2[C@H](C)OC)c(CC(C)(C)CO)c2cc(N3CCO[C@@H](C[C@H](NC(=O)OC(C)(C)C)C(=O)N4N[C@H](C(=O)O)C5CC4C5)C3)ccc21, PyBOP/DMAP, 9.8 mM, 35.0 °C, 0.5 h”, the ring closure, isolated yield was found to be 16%.

Turning to `CCn1c(-c2cc(N3CCN(C4CC4)CC3)cnc2[C@H](C)OC)c2c3cc(ccc31)-c1csc(n1)C[C@H](NC(=O)OC(C)(C)C)C(=O)N(C)NCC(=O)OCC(C)(C)C2`, the ring closure, isolated yield (from CCn1c(-c2cc(N3CCN(C4CC4)CC3)cnc2[C@H](C)OC)c(CC(C)(C)CO)c2cc(-c3csc(C[C@H](NC(=O)OC(C)(C)C)C(=O)N(C)NCC(=O)O)n3)ccc21, PyBOP/DMAP, 5.9 mM, 0.0 °C, 1.0 h) was determined as 27%.

Where the note is “from CCn1c(-c2cc(N3CCN(C(=O)OCc4ccccc4)CC3)cnc2[C@H](C)OC)c(CC(C)(C)CO)c2cc(-c3csc(C[C@H](NC(=O)OC(C)(C)C)C(=O)N(C)NCC(=O)O)n3)ccc21, EDCI/HOBT/DIEA, 4.3 mM, 16.0 h”, `CCn1c(-c2cc(N3CCN(C(=O)OCc4ccccc4)CC3)cnc2[C@H](C)OC)c2c3cc(ccc31)-c1csc(n1)C[C@H](NC(=O)OC(C)(C)C)C(=O)N(C)NCC(=O)OCC(C)(C)C2` registered a ring closure, isolated yield of 38.2%.

`C=C[C@@H]1CCN2N[C@@H]1C(=O)OCC(C)(C)Cc1c(-c3cc(N4CCN(C(=O)OCc5ccccc5)CC4)cnc3[C@H](C)OC)n(CC)c3ccc(cc13)-c1csc(n1)C[C@H](NC(=O)OC(C)(C)C)C2=O` gave a ring closure, isolated yield (from C=C[C@@H]1CCN(C(=O)[C@H](Cc2nc(-c3ccc4c(c3)c(CC(C)(C)CO)c(-c3cc(N5CCN(C(=O)OCc6ccccc6)CC5)cnc3[C@H](C)OC)n4CC)cs2)NC(=O)OC(C)(C)C)N[C@@H]1C(=O)O, EDCI/HOBT/DIEA, 10.0 mM, 16.0 h) of 36.7%.

Turning to `CCn1c(-c2cc(N3CCN(C)CC3)cnc2[C@H](C)OC)c2c3cc(ccc31)-c1csc(n1)C[C@H](NC(=O)OC(C)(C)C)C(=O)N1N[C@H](C(=O)OCC(C)(C)C2)C2CC1C2`, for the setting “from CCn1c(-c2cc(N3CCN(C)CC3)cnc2[C@H](C)OC)c(CC(C)(C)CO)c2cc(-c3csc(C[C@H](NC(=O)OC(C)(C)C)C(=O)N4N[C@H](C(=O)O)C5CC4C5)n3)ccc21, PyBOP/DMAP, 5.7 mM, 5.0 h”, the ring closure, isolated yield worked out at 48.8%.
